# Results: patent US11793849B2, “Method of Chinese herbal medicine extract used for treating multiple diseases caused by drug resistant bacteria infection” (priority 2016, dated 2023)
# Like-named read-outs stand apart in the source and are kept apart here.
# Tested on: MDRAB
# Assay: Checkerboard assay (combined-use MIC, FIC)
# Assay type: cell-based, Acinetobacter baumannii
# Conditions: for FIC, all strains / MIC50 of the antibiotic after combined use / MIC90 of the antibiotic after combined use / reduction of the antibiotic's MIC50 vs single use / reduction of the antibiotic's MIC90 vs single use / share of strains with FIC ≤ 0.5: 20 MDRABs; for MIC: Acinetobacter baumannii, EA=60% ethanol extract, read-out: single-use MIC
# Description: Test methods of the sensibilization effects of the test product to similar antibiotics: it is operated by referring to a checkerboard assay recommended by NCCLS.
# The checkerboard assay is performed in a 96-pore sterile culture plate.
# Calculation of a Fractional Inhibitory Concentration (FIC): FIC=S20b combined-use MIC/S20b single-use MIC+antibiotic combined-use MIC/antibiotic single-use MIC. By calculating the FIC, the combined antibacterial interaction between the EA and the antibiotic is evaluated, with synergistic effect for FIC≤0.5, additive effect for 0.5<FIC≤1, indifferent effect for 1<FIC≤2 and antagonistic effect for FIC>2. According to a sterile growth pore, the optimum concentration ratio between the EA and the antibiotic is founded out. At last, the effect of the EA to strengthen the efficacy of the antibiotic is evaluated.
# [1] = antibiotic with 60% ethanol extract
# [2] = antibiotic with 95% ethanol extract
# [3] = antibiotic with EA (10% ethanol extract)
# [4] = antibiotic with EA (water extract)
compound,measurement,setting,value
"CC(C)(O/N=C(\C(=O)N[C@@H]1C(=O)N2C(C(=O)[O-])=C(C[n+]3ccccc3)CS[C@H]12)c1csc(N)n1)C(=O)O [CAZ, Ceftazidime]","FIC, all strains",[1],≤ 2
same,MIC50 of the antibiotic after combined use,[1],128 mg/L
same,MIC90 of the antibiotic after combined use,[1],256 mg/L
same,reduction of the antibiotic's MIC50 vs single use,[1],75%
same,reduction of the antibiotic's MIC90 vs single use,[1],50%
same,share of strains with FIC ≤ 0.5,[1],10%
same,"FIC, all strains",[2],≤ 2
same,MIC50 of the antibiotic after combined use,[2],128 mg/L
same,MIC90 of the antibiotic after combined use,[2],256 mg/L
same,reduction of the antibiotic's MIC50 vs single use,[2],75%
same,reduction of the antibiotic's MIC90 vs single use,[2],50%
same,share of strains with FIC ≤ 0.5,[2],10%
same,"FIC, all strains",[3],≤ 2
same,MIC50 of the antibiotic after combined use,[3],128 mg/L
same,MIC90 of the antibiotic after combined use,[3],256 mg/L
same,reduction of the antibiotic's MIC50 vs single use,[3],75%
same,reduction of the antibiotic's MIC90 vs single use,[3],50%
same,share of strains with FIC ≤ 0.5,[3],30%
same,"FIC, all strains",[4],≤ 2
same,MIC50 of the antibiotic after combined use,[4],128 mg/L
same,MIC90 of the antibiotic after combined use,[4],256 mg/L
same,reduction of the antibiotic's MIC50 vs single use,[4],75%
same,reduction of the antibiotic's MIC90 vs single use,[4],50%
same,share of strains with FIC ≤ 0.5,[4],20%
same,MIC,strain A1,128 mg/L
same,MIC,strain A2,512 mg/L
same,MIC,strain A3,512 mg/L
same,MIC,strain A4,256 mg/L
same,MIC,strain A5,64 mg/L
same,MIC,strain A6,1020 mg/L
same,MIC,strain A7,1020 mg/L
same,MIC,strain A8,512 mg/L
same,MIC,strain A9,512 mg/L
same,MIC,strain A10,512 mg/L
same,MIC,strain A11,512 mg/L
same,MIC,strain A12,512 mg/L
same,MIC,strain A13,256 mg/L
same,MIC,strain A14,512 mg/L
same,MIC,strain A15,256 mg/L
same,MIC,strain A16,512 mg/L
same,MIC,strain A17,256 mg/L
same,MIC,strain A18,512 mg/L
same,MIC,strain A19,256 mg/L
same,MIC,strain A20,512 mg/L
same,combined-use MIC,"strain A1, EA (10% ethanol extract) with CAZ",64 mg/L
same,combined-use MIC,"strain A1, EA (60% ethanol extract) + CAZ combined",64 mg/L
same,combined-use MIC,"strain A1, EA (P. clypearia 95% ethanol extract) combined with CAZ",64 mg/L
same,combined-use MIC,"strain A1, EA (water extract) with CAZ",64 mg/L
same,combined-use MIC,"strain A2, EA (10% ethanol extract) with CAZ",256 mg/L
same,combined-use MIC,"strain A2, EA (60% ethanol extract) + CAZ combined",128 mg/L
same,combined-use MIC,"strain A2, EA (P. clypearia 95% ethanol extract) combined with CAZ",128 mg/L
same,combined-use MIC,"strain A2, EA (water extract) with CAZ",256 mg/L
same,combined-use MIC,"strain A3, EA (10% ethanol extract) with CAZ",256 mg/L
same,combined-use MIC,"strain A3, EA (60% ethanol extract) + CAZ combined",128 mg/L
same,combined-use MIC,"strain A3, EA (P. clypearia 95% ethanol extract) combined with CAZ",128 mg/L
same,combined-use MIC,"strain A3, EA (water extract) with CAZ",256 mg/L
same,combined-use MIC,"strain A4, EA (10% ethanol extract) with CAZ",64 mg/L
same,combined-use MIC,"strain A4, EA (60% ethanol extract) + CAZ combined",64 mg/L
same,combined-use MIC,"strain A4, EA (P. clypearia 95% ethanol extract) combined with CAZ",64 mg/L
same,combined-use MIC,"strain A4, EA (water extract) with CAZ",32 mg/L
same,combined-use MIC,"strain A5, EA (10% ethanol extract) with CAZ",32 mg/L
same,combined-use MIC,"strain A5, EA (60% ethanol extract) + CAZ combined",32 mg/L
same,combined-use MIC,"strain A5, EA (P. clypearia 95% ethanol extract) combined with CAZ",32 mg/L
same,combined-use MIC,"strain A5, EA (water extract) with CAZ",32 mg/L
same,combined-use MIC,"strain A6, EA (10% ethanol extract) with CAZ",512 mg/L
same,combined-use MIC,"strain A6, EA (60% ethanol extract) + CAZ combined",512 mg/L
same,combined-use MIC,"strain A6, EA (P. clypearia 95% ethanol extract) combined with CAZ",512 mg/L
same,combined-use MIC,"strain A6, EA (water extract) with CAZ",512 mg/L
same,combined-use MIC,"strain A7, EA (10% ethanol extract) with CAZ",512 mg/L
same,combined-use MIC,"strain A7, EA (60% ethanol extract) + CAZ combined",256 mg/L
same,combined-use MIC,"strain A7, EA (P. clypearia 95% ethanol extract) combined with CAZ",256 mg/L
same,combined-use MIC,"strain A7, EA (water extract) with CAZ",512 mg/L
same,combined-use MIC,"strain A8, EA (10% ethanol extract) with CAZ",256 mg/L
same,combined-use MIC,"strain A8, EA (60% ethanol extract) + CAZ combined",256 mg/L
same,combined-use MIC,"strain A8, EA (P. clypearia 95% ethanol extract) combined with CAZ",256 mg/L
same,combined-use MIC,"strain A8, EA (water extract) with CAZ",256 mg/L
same,combined-use MIC,"strain A9, EA (10% ethanol extract) with CAZ",128 mg/L
same,combined-use MIC,"strain A9, EA (60% ethanol extract) + CAZ combined",64 mg/L
same,combined-use MIC,"strain A9, EA (P. clypearia 95% ethanol extract) combined with CAZ",256 mg/L
same,combined-use MIC,"strain A9, EA (water extract) with CAZ",64 mg/L
same,combined-use MIC,"strain A10, EA (10% ethanol extract) with CAZ",256 mg/L
same,combined-use MIC,"strain A10, EA (60% ethanol extract) + CAZ combined",128 mg/L
same,combined-use MIC,"strain A10, EA (P. clypearia 95% ethanol extract) combined with CAZ",256 mg/L
same,combined-use MIC,"strain A10, EA (water extract) with CAZ",256 mg/L
same,combined-use MIC,"strain A11, EA (10% ethanol extract) with CAZ",128 mg/L
same,combined-use MIC,"strain A11, EA (60% ethanol extract) + CAZ combined",64 mg/L
same,combined-use MIC,"strain A11, EA (P. clypearia 95% ethanol extract) combined with CAZ",64 mg/L
same,combined-use MIC,"strain A11, EA (water extract) with CAZ",256 mg/L
same,combined-use MIC,"strain A12, EA (10% ethanol extract) with CAZ",128 mg/L
same,combined-use MIC,"strain A12, EA (60% ethanol extract) + CAZ combined",128 mg/L
same,combined-use MIC,"strain A12, EA (P. clypearia 95% ethanol extract) combined with CAZ",128 mg/L
same,combined-use MIC,"strain A12, EA (water extract) with CAZ",128 mg/L
same,combined-use MIC,"strain A13, EA (10% ethanol extract) with CAZ",128 mg/L
same,combined-use MIC,"strain A13, EA (60% ethanol extract) + CAZ combined",128 mg/L
same,combined-use MIC,"strain A13, EA (P. clypearia 95% ethanol extract) combined with CAZ",128 mg/L
same,combined-use MIC,"strain A13, EA (water extract) with CAZ",128 mg/L
same,combined-use MIC,"strain A14, EA (10% ethanol extract) with CAZ",64 mg/L
same,combined-use MIC,"strain A14, EA (60% ethanol extract) + CAZ combined",256 mg/L
same,combined-use MIC,"strain A14, EA (P. clypearia 95% ethanol extract) combined with CAZ",256 mg/L
same,combined-use MIC,"strain A14, EA (water extract) with CAZ",64 mg/L
same,combined-use MIC,"strain A15, EA (10% ethanol extract) with CAZ",128 mg/L
same,combined-use MIC,"strain A15, EA (60% ethanol extract) + CAZ combined",128 mg/L
same,combined-use MIC,"strain A15, EA (P. clypearia 95% ethanol extract) combined with CAZ",128 mg/L
same,combined-use MIC,"strain A15, EA (water extract) with CAZ",128 mg/L
same,combined-use MIC,"strain A16, EA (10% ethanol extract) with CAZ",128 mg/L
same,combined-use MIC,"strain A16, EA (60% ethanol extract) + CAZ combined",128 mg/L
same,combined-use MIC,"strain A16, EA (P. clypearia 95% ethanol extract) combined with CAZ",256 mg/L
same,combined-use MIC,"strain A16, EA (water extract) with CAZ",64 mg/L
same,combined-use MIC,"strain A17, EA (10% ethanol extract) with CAZ",64 mg/L
same,combined-use MIC,"strain A17, EA (60% ethanol extract) + CAZ combined",128 mg/L
same,combined-use MIC,"strain A17, EA (P. clypearia 95% ethanol extract) combined with CAZ",128 mg/L
same,combined-use MIC,"strain A17, EA (water extract) with CAZ",32 mg/L
same,combined-use MIC,"strain A18, EA (10% ethanol extract) with CAZ",256 mg/L
same,combined-use MIC,"strain A18, EA (60% ethanol extract) + CAZ combined",128 mg/L
same,combined-use MIC,"strain A18, EA (P. clypearia 95% ethanol extract) combined with CAZ",128 mg/L
same,combined-use MIC,"strain A18, EA (water extract) with CAZ",256 mg/L
same,combined-use MIC,"strain A19, EA (10% ethanol extract) with CAZ",64 mg/L
same,combined-use MIC,"strain A19, EA (60% ethanol extract) + CAZ combined",128 mg/L
same,combined-use MIC,"strain A19, EA (P. clypearia 95% ethanol extract) combined with CAZ",128 mg/L
same,combined-use MIC,"strain A19, EA (water extract) with CAZ",128 mg/L
same,combined-use MIC,"strain A20, EA (10% ethanol extract) with CAZ",128 mg/L
same,combined-use MIC,"strain A20, EA (60% ethanol extract) + CAZ combined",256 mg/L
same,combined-use MIC,"strain A20, EA (P. clypearia 95% ethanol extract) combined with CAZ",256 mg/L
same,combined-use MIC,"strain A20, EA (water extract) with CAZ",64 mg/L
